# Measured values taken from PMC7523345 (Investigational new drugs, 2018).
# Experiment: clinical
# Set-up: species or system human
# Details: in vivo
smiles,measurement,setting,value
Cc1cccc2c1NC(=O)[C@@H](NC(=O)[C@H](CCC(F)(F)F)[C@H](CCC(F)(F)F)C(N)=O)N=C2c1cccc(F)c1 [BMS-986115],half-life,human,17.2 to 28 h
same,median accumulation ratio (AUCtau ratio of Day 15/Day 1),"human, 0.3 mg",2.64
same,median accumulation ratio (AUCtau ratio of Day 15/Day 1),"human, 0.6 mg",3.9
same,median accumulation ratio (AUCtau ratio of Day 15/Day 1),"human, 1.2 mg",3.66
same,median accumulation ratio (AUCtau ratio of Day 15/Day 1),"human, 1.5 mg",2.33
same,Accumulation ratio (AUCtau ratio of Day 16/Day 1),"human, 2 mg",2.47
same,median accumulation ratio (AUCtau ratio of Day 15/Day 1),"human, 2 mg",2.19
same,Accumulation ratio (AUCtau ratio of Day 16/Day 1),"human, 4 mg",3.01
same,Accumulation ratio (AUCtau ratio of Day 16/Day 1),"human, 8 mg",2.77
same,"Exposure, dose relation",,dose related increase
